In ChEMBL document CHEMBL4627379, “Production of Antitubercular Depsipeptides via Biosynthetic Engineering of Cinnamoyl Units” (2020):

Tested on: Mycobacterium tuberculosis
Assay: Antitubercular activity against autoluminescent Mycobacterium tuberculosis H37Rv assessed as reduction in microbial growth by two-fold serial dilution method
Type: functional

| SMILES | MIC [µM] |
| --- | --- |
| CO[C@H]1/C=C/O[C@@]2(C)Oc3c(C)c(O)c4c(O)c(c(/C=N/N5CCN(C)CC5)c(O)c4c3C2=O)NC(=O)/C(C)=C\C=C\[C@H](C)[C@H](O)[C@@H](C)[C@@H](O)[C@@H](C)[C@H](OC(C)=O)[C@@H]1C [RIFAMPIN] | 0.06 |
| C/C=C/C=C/c1ccccc1/C=C/C(=O)N[C@@H]1C(=O)N[C@@H](CO)C(=O)N[C@@H](Cc2c[nH]c3ccccc23)C(=O)N[C@H](CC(N)=O)C(=O)N[C@@H]([C@@H](O)c2ccccc2)C(=O)N2CCC[C@H]2C(=O)N[C@H](C(C)C)C(=O)NCC(=O)N[C@H](CC(C)C)C(=O)N[C@H](Cc2ccc(O)cc2)C(=O)O[C@@H]1C | 2.3 |
| Cc1ccccc1/C=C/C(=O)N[C@@H]1C(=O)N[C@@H](CO)C(=O)N[C@@H](Cc2c[nH]c3ccccc23)C(=O)N[C@H](CC(N)=O)C(=O)N[C@@H]([C@@H](O)c2ccccc2)C(=O)N2CCC[C@H]2C(=O)N[C@H](C(C)C)C(=O)NCC(=O)N[C@H](CC(C)C)C(=O)N[C@H](Cc2ccc(O)cc2)C(=O)O[C@@H]1C | 14.8 |
| C/C=C/[C@H](O)[C@H](O)c1ccccc1/C=C/C(=O)N[C@@H]1C(=O)N[C@@H](CO)C(=O)N[C@H](CC(C)C)C(=O)N[C@@H]([C@H](O)c2ccccc2)C(=O)N[C@@H](CO)C(=O)N[C@H]([C@@H](C)O)C(=O)N[C@H](CO)C(=O)N[C@H](c2ccc(O)cc2)C(=O)N[C@@H](C(C)C)C(=O)N[C@H](CC(C)C)C(=O)O[C@H]1C | 1.9 |
